Literature values, collected in patent US20110160274A1 (PANACEA BIOTEC LIMITED, priority 2008, published 2011).

Conditions: after oral administration of fenofibrate

CC(C)(Oc1ccc(C(=O)c2ccc(Cl)cc2)cc1)C(=O)O [fenofibric acid]
plasma elimination half life: about 20 hours
